Results published in BindingDB's records for doi:10.1016/j.bmc.2012.11.021 (University of Bonn, 2012).

Legend:
[1] = target: Adenosine receptor A2a (Rattus norvegicus, UniProt P30543); test: Displacement of [3H]CGS21680 from adenosine A2A receptor in rat brain striatal membrane after 60 mins by liquid scintillation counting analysis
[2] = target: T1, Adenosine receptor A2b (Homo sapiens, UniProt P29275); test: Displacement of [3H]PSB-603 from human recombinant adenosine A2B receptor expressed in CHO cells after 75 mins by liquid scintillation counting analysis
T1 sequence (P29275 whole entry): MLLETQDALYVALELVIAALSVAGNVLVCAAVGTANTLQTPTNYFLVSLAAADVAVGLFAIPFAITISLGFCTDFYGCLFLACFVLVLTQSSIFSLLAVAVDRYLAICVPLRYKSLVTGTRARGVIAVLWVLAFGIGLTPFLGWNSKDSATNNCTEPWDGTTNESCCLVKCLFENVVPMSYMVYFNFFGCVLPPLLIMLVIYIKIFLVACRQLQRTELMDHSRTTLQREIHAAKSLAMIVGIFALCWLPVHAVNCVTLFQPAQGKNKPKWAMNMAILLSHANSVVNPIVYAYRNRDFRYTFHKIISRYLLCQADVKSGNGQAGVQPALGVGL

Adenosine receptor A2a, sequence (P30543 whole entry): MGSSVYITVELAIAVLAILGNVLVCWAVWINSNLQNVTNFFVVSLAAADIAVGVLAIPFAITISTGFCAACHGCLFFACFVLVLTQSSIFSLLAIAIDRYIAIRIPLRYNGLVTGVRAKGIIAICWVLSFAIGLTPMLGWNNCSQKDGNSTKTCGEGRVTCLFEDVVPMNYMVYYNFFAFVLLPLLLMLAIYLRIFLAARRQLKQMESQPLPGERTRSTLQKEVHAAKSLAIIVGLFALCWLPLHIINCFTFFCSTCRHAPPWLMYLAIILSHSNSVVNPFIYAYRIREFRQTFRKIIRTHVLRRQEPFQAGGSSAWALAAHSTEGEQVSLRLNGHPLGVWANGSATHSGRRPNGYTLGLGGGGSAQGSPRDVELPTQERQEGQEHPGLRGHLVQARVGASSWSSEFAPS

SMILES	Ki [1]	Ki [2]
CN(NCC(=O)[C@@H](O)[C@@H](O)CO)c1nc(N)c2ncn([C@@H]3O[C@H](CO)[C@@H](O)[C@H]3O)c2n1	> 1 µM	> 10 µM
CN(NCC(=O)[C@@H](O)[C@@H](O)[C@H](O)CO)c1nc(N)c2ncn([C@@H]3O[C@H](CO)[C@@H](O)[C@H]3O)c2n1	> 1 µM	> 10 µM
CN(NC(CO)C(=O)[C@@H](O)[C@@H](O)CO)c1nc(N)c2ncn([C@@H]3O[C@H](CO)[C@@H](O)[C@H]3O)c2n1 (some centres not stated)	> 1 µM	> 10 µM

Other lines, results leading:

Ki [1]	Ki [2]	SMILES
> 1 µM	> 10 µM	CN(NCC(=O)[C@H](O)[C@@H](O)[C@@H](O)CO)c1nc(N)c2ncn([C@@H]3O[C@H](CO)[C@@H](O)[C@H]3O)c2n1
> 1 µM	> 10 µM	Nc1nc(NNC(CO)C(=O)[C@@H](O)[C@@H](O)CO)nc2c1ncn2[C@@H]1O[C@H](CO)[C@@H](O)[C@H]1O (some centres not stated)
> 1 µM	> 10 µM	Nc1nc(NNCC(=O)[C@@H](O)[C@@H](O)CO)nc2c1ncn2[C@@H]1O[C@H](CO)[C@@H](O)[C@H]1O
